Measured values: patent publication US20140163012A1, “PYRIDO-/AZEPINO-BENZOFURAN AND PYRIDO-/AZEPINO-BENZOTHIOPHENE MCH-1 ANTAGONISTS, METHODS OF MAKING, AND USE THEREOF” (Albany Molecular Research, Inc., priority 2012, published 2014)
Structures can show the parent of a compound that is named as a salt.

Biological target: human MCH-1 receptor (Homo sapiens, UniProt Q99705)
Assay: Binding assay for human melanin-concentrating hormone (MCH-1) receptor, radioligand displacement on CHO-K1 cell membranes
Conditions: not given

human MCH-1 receptor, sequence (Q99705 whole entry): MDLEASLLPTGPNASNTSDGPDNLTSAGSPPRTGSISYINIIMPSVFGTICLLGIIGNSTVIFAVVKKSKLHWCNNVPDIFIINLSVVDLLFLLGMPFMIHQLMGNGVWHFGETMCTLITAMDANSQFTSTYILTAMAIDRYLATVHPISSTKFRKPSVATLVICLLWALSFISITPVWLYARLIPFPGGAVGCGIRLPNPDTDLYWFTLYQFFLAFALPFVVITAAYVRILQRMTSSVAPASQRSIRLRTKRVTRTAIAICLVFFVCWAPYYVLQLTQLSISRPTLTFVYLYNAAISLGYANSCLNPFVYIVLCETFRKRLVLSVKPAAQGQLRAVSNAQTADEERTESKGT

SMILES	Ki [nM]
CC(=O)N1CCc2oc3cc(-n4ccc(OCc5ccc(F)cn5)cc4=O)ccc3c2C1 [Example 29, 1-(2-Acetyl-1,2,3,4-tetrahydrobenzofuro[3,2-c]pyridin-7-yl)-4-((5-fluoropyridin-2-yl)methoxy)pyridin-2(1H)-one]	46
CC(C)N1CCc2oc3cc(-n4ccc(OCc5ccccc5)cc4=O)ccc3c2C1 [Example 30, 4-(Benzyloxy)-1-(2-isopropyl-1,2,3,4-tetrahydrobenzofuro[3,2-c]pyridin-7-yl)pyridin-2(1H)-one hydrochloride]	9
O=c1cc(OCc2cccc(C(F)(F)F)n2)ccn1-c1ccc2c3c(oc2c1)CCNC3 [Example 31, 1-(1,2,3,4-Tetrahydrobenzofuro[3,2-c]pyridin-7-yl)-4-((6-(trifluoromethyl)pyridin-2-yl)methoxy)pyridin-2(1H)-one hydrochloride]	23
C[C@H]1Cc2oc3cc(-n4ccc(OCc5ccccc5)cc4=O)ccc3c2CN1 [Example 32, (S)-4-(Benzyloxy)-1-(3-methyl-1,2,3,4-tetrahydrobenzofuro[3,2-c]pyridin-7-yl)pyridin-2(1H)-one hydrochloride]	7.4
C[C@@H]1NCCc2oc3cc(-n4ccc(OCc5ccccc5)cc4=O)ccc3c21 [Example 33, (S)-4-(Benzyloxy)-1-(1-methyl-1,2,3,4-tetrahydrobenzofuro[3,2-c]pyridin-7-yl)pyridin-2(1H)-one hydrochloride]	6
C[C@H]1Cc2oc3cc(-n4ccc(OCc5ccccn5)cc4=O)ccc3c2CN1 [Example 34, (S)-1-(3-Methyl-1,2,3,4-tetrahydrobenzofuro[3,2-c]pyridin-7-yl)-4-(pyridin-2-ylmethoxy)pyridin-2(1H)-one hydrochloride]	38
C[C@@H]1NCCc2oc3cc(-n4ccc(OCc5ccccn5)cc4=O)ccc3c21 [Example 35, (S)-1-(1-Methyl-1,2,3,4-tetrahydrobenzofuro[3,2-c]pyridin-7-yl)-4-(pyridin-2-ylmethoxy)pyridin-2(1H)-one hydrochloride]	57
O=c1cc(-c2ccc(C(F)(F)F)cn2)ccn1-c1ccc2c3c(oc2c1)CCCNC3 [Example 36, 1-(2,3,4,5-Tetrahydro-1H-benzofuro[3,2-c]azepin-8-yl)-4-(5-(trifluoromethyl)pyridin-2-yl)pyridin-2(1H)-one hydrochloride]	39
O=c1cc(OCc2ccc(F)cn2)ccn1-c1ccc2c3c(oc2c1)CCCNC3 [Example 37, 4-((5-Fluoropyridin-2-yl)methoxy)-1-(2,3,4,5-tetrahydro-1H-benzofuro[3,2-c]azepin-8-yl)pyridin-2(1H)-one hydrochloride]	4.5
O=c1cc(OCc2ccc(Cl)cn2)ccn1-c1ccc2c3c(oc2c1)CCCNC3 [Example 38, 4-((5-Chloropyridin-2-yl)methoxy)-1-(2,3,4,5-tetrahydro-1H-benzofuro[3,2-c]azepin-8-yl)pyridin-2(1H)-one hydrochloride]	3
O=c1cc(OCc2ccc(F)cn2)ccn1-c1ccc2c3c(oc2c1)CCNCC3 [Example 39, 4-((5-Fluoropyridin-2-yl)methoxy)-1-(2,3,4,5-tetrahydro-1H-benzofuro[2,3-d]azepin-8-yl)pyridin-2(1H)-one hydrochloride]	9
O=c1cc(OCc2ccccc2)ccn1-c1ccc2c3c(oc2c1)CCCNC3 [Example 40, 4-(Benzyloxy)-1-(2,3,4,5-tetrahydro-1H-benzofuro[3,2-c]azepin-8-yl)pyridin-2(1H)-one hydrochloride]	3.4
O=c1cc(OCc2ccccc2)ccn1-c1ccc2c3c(oc2c1)CCNCC3 [Example 41, 4-(Benzyloxy)-1-(2,3,4,5-tetrahydro-1H-benzofuro[2,3-d]azepin-8-yl)pyridin-2(1H)-one hydrochloride]	5.7
O=c1cc(OCc2ccc(Cl)cn2)ccn1-c1ccc2c3c(oc2c1)CCNCC3 [Example 42, 4-((5-Chloropyridin-2-yl)methoxy)-1-(2,3,4,5-tetrahydro-1H-benzofuro[2,3-d]azepin-8-yl)pyridin-2(1H)-one hydrochloride]	4.7
O=c1cc(OCc2cccc(C(F)(F)F)n2)ccn1-c1ccc2c3c(oc2c1)CCCNC3 [Example 43, 1-(2,3,4,5-Tetrahydro-1H-benzofuro[3,2-c]azepin-8-yl)-4-((6-(trifluoromethyl)pyridin-2-yl)methoxy)pyridin-2(1H)-one hydrochloride]	9.7
O=c1cc(OCc2ccc(F)cn2)cnn1-c1ccc2c3c(oc2c1)CCCNC3 [Example 44, 5-((5-Fluoropyridin-2-yl)methoxy)-2-(2,3,4,5-tetrahydro-1H-benzofuro[3,2-c]azepin-8-yl)pyridazin-3(2H)-one hydrochloride]	13
O=c1cc(OCc2ccc(C(F)(F)F)nc2)ccn1-c1ccc2c3c(oc2c1)CCCNC3 [Example 45, 1-(2,3,4,5-Tetrahydro-1H-benzofuro[3,2-c]azepin-8-yl)-4-((6-(trifluoromethyl)pyridin-3-yl)methoxy)pyridin-2(1H)-one hydrochloride]	29
Cc1ccc(COc2ccn(-c3ccc4c5c(oc4c3)CCCNC5)c(=O)c2)cn1 [Example 46, 4-((6-Methylpyridin-3-yl)methoxy)-1-(2,3,4,5-tetrahydro-1H-benzofuro[3,2-c]azepin-8-yl)pyridin-2(1H)-one hydrochloride]	47
O=c1cc(OCc2ccc(C(F)(F)F)nc2)ccn1-c1ccc2c3c(oc2c1)CCNCC3 [Example 47, 1-(2,3,4,5-Tetrahydro-1H-benzofuro[2,3-d]azepin-8-yl)-4-((6-(trifluoromethyl)pyridin-3-yl)methoxy)pyridin-2(1H)-one hydrochloride]	55
O=c1cc(-c2ccc(C(F)(F)F)cc2)ccn1-c1ccc2c3c(oc2c1)CCCNC3 [Example 48, 1-(2,3,4,5-Tetrahydro-1H-benzofuro[3,2-c]azepin-8-yl)-4-(4-(trifluoromethyl)phenyl)pyridin-2(1H)-one hydrochloride]	4.5
CN1CCCc2oc3cc(-n4ccc(OCc5cccc(C(F)(F)F)n5)cc4=O)ccc3c2C1 [Example 49, 1-(2-Methyl-2,3,4,5-tetrahydro-1H-benzofuro[3,2-c]azepin-8-yl)-4-((6-(trifluoromethyl)pyridin-2-yl)methoxy)pyridin-2(1H)-one hydrochloride]	22
CC(=O)N1CCc2c(sc3cc(-n4ccc(OCc5ccc(F)cn5)cc4=O)ccc23)C1 [Example 53, 1-(2-Acetyl-1,2,3,4-tetrahydrobenzothieno[2,3-c]pyridin-7-yl)-4-((5-fluoropyridin-2-yl)methoxy)pyridin-2(1H)-one]	39
O=c1cc(OCc2ccc(F)cn2)ccn1-c1ccc2c3c(sc2c1)CCNC3 [Example 55, 4-((5-Fluoropyridin-2-yl)methoxy)-1-(1,2,3,4-tetrahydrobenzothieno[3,2-c]pyridin-7-yl)pyridin-2(1H)-one hydrochloride]	2.7

Same assay, conditions: read-out: MCH1 % inhibition @ 1 uM

SMILES	inhibition at 1 µM [%]
O=C1NCCc2c1sc1cc(-n3ccc(OCc4ccc(F)cn4)cc3=O)ccc21 [Example 54, 7-(4-((5-Fluoropyridin-2-yl)methoxy)-2-oxopyridin-1(2H)-yl)-3,4-dihydrobenzothieno[2,3-c]pyridin-1(2H)-one]	60
